# According to patent US8377974B2 (Millennium Pharmaceuticals, Inc., priority 2004, dated 2013):
# pIC50: −log10 of the molar value.
# Molecular target: T1, human plasma protein factor Xa (Homo sapiens, UniProt P00742)
# T1 construct: measure proteolytic activity of the enzyme (factor Xa); purchased Haematologic Technologies (Essex Junction, Vt.); host or cells: human plasma
# Assay: Factor Xa IC50 determination: cleavage of paranitroanilide substrate S-2765 in 96-well plates
# Type: biochemical
# Conditions: fXa 1 nM, S-2765 100 μM, Tris buffered saline pH 7.4, room temperature
# Method in brief: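 Initial rates of S-2765 (100 μM final) cleavage, read at 405 nm for 2 min, fitted with a four-parameter equation to give IC50. Enzyme: 1 nM human plasma fXa, 5 min room-temperature preincubation with inhibitor (0.01 nM–10 μM) in 20 mM Tris, 150 mM NaCl, 5 mM CaCl2, 0.1% BSA, 5% DMSO, pH 7.4; duplicates.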
# T1 sequence (P00742 235-488 limits assumed): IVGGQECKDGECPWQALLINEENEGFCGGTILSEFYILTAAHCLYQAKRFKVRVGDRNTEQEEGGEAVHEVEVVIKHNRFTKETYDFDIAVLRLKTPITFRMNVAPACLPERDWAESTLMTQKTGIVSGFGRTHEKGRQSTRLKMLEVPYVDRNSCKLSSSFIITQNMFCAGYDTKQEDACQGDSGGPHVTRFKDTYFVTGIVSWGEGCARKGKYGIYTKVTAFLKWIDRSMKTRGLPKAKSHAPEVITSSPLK
# T1 sequence (P00742 41-179 partner limits assumed): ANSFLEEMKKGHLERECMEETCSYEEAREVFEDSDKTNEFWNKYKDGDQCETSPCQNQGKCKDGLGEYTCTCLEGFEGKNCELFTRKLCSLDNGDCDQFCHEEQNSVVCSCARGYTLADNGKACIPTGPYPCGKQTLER
row,SMILES,pIC50
1,"N=C(c1ccc(-n2cc(CNC(=O)c3ccc(Cl)s3)nn2)c(F)c1)N1CCCCC1 [Example 323, 5-Chloro-N-((1-(2-fluoro-4-(imino(piperidin-1-yl)methyl)phenyl)-1H-1,2,3-triazol-4-yl)methyl)thiophene-2-carboxamide]",≥ 7.00
2,"CN1CCN=C1c1ccc(-n2cc(CNC(=O)c3ccc(Cl)s3)nn2)c(F)c1 [Example 324, 5-Chloro-N-((1-(2-fluoro-4-(1-methyl-4,5-dihydro-1H-imidazol-2-yl)phenyl)-1H-1,2,3-triazol-4-yl)methyl)thiophene-2-carboxamide]",≥ 7.00
3,"CN(C)C(=N)c1ccc(-n2cc(CNC(=O)c3ccc(Cl)s3)cn2)cc1 [Example 325, N-((1-(4-(N,N-Dimethylcarbamimidoyl)phenyl)-1H-pyrazol-4-yl)methyl)-5-chlorothiophene-2-carboxamide]",≥ 7.00
4,"CN1CCN=C1c1ccc(-n2cc(CNC(=O)c3ccc(Cl)s3)cn2)cc1 [Example 326, 5-Chloro-N-((1-(4-(1-methyl-4,5-dihydro-1H-imidazol-2-yl)phenyl)-1H-pyrazol-4-yl)methyl)thiophene-2-carboxamide]",≥ 7.00
5,"N=C(c1ccc(-n2cc(CNC(=O)c3ccc(Cl)s3)cn2)cc1)N1CCC1 [Example 327, N-((1-(4-(Azetidin-1-yl(imino)methyl)phenyl)-1H-pyrazol-4-yl)methyl)-5-chlorothiophene-2-carboxamide]",≥ 7.00
6,"N=C(c1ccc(-n2cc(CNC(=O)c3ccc(Cl)s3)cn2)cc1)N1CCCC1 [Example 328, 5-Chloro-N-((1-(4-(imino(pyrrolidin-1-yl)methyl)phenyl)-1H-pyrazol-4-yl)methyl)thiophene-2-carboxamide]",≥ 7.00
7,"N=C(c1ccc(-n2cc(CNC(=O)c3ccc(Cl)s3)cn2)cc1)N1CCCCC1 [Example 329, 5-Chloro-N-((1-(4-(imino(piperidin-1-yl)methyl)phenyl)-1H-pyrazol-4-yl)methyl)thiophene-2-carboxamide]",≥ 7.00
8,"CN(C)C(=N)c1ccc(-c2cc(CNC(=O)c3ccc(Cl)s3)no2)cc1 [Example 330, N-((5-(4-(N,N-Dimethylcarbamimidoyl)phenyl)isoxazol-3-yl)methyl)-5-chlorothiophene-2-carboxamide]",≥ 7.00
9,"CN1CCN=C1c1ccc(-c2cc(CNC(=O)c3ccc(Cl)s3)no2)cc1 [Example 331, 5-Chloro-N-((5-(4-(1-methyl-4,5-dihydro-1H-imidazol-2-yl)phenyl)isoxazol-3-yl)methyl)thiophene-2-carboxamide]",≥ 7.00
10,"N=C(c1ccc(-c2cc(CNC(=O)c3ccc(Cl)s3)no2)cc1)N1CCCC1 [Example 332, 5-Chloro-N-((5-(4-(imino(pyrrolidin-1-yl)methyl)phenyl)isoxazol-3-yl)methyl)thiophene-2-carboxamide]",≥ 7.00
11,"N=C(c1ccc(-c2cc(CNC(=O)c3ccc(Cl)s3)no2)cc1)N1CCCCC1 [Example 333, 5-Chloro-N-((5-(4-(imino(piperidin-1-yl)methyl)phenyl)isoxazol-3-yl)methyl)thiophene-2-carboxamide]",≥ 7.00
12,"CN(C)C(=N)c1ccc(-c2noc(CNC(=O)c3ccc(Cl)s3)n2)cc1 [Example 334, N-((3-(4-(N,N-Dimethylcarbamimidoyl)phenyl)-1,2,4-oxadiazol-5-yl)methyl)-5-chlorothiophene-2-carboxamide]",≥ 7.00
13,"CN1CCN=C1c1ccc(-c2noc(CNC(=O)c3ccc(Cl)s3)n2)cc1 [Example 335, 5-Chloro-N-((3-(4-(1-methyl-4,5-dihydro-1H-imidazol-2-yl)phenyl)-1,2,4-oxadiazol-5-yl)methyl)thiophene-2-carboxamide]",≥ 7.00
14,"N=C(c1ccc(-c2noc(CNC(=O)c3ccc(Cl)s3)n2)cc1)N1CCCC1 [Example 336, 5-Chloro-N-((3-(4-(imino(pyrrolidin-1-yl)methyl)phenyl)-1,2,4-oxadiazol-5-yl)methyl)thiophene-2-carboxamide]",≥ 7.00
15,"N=C(c1ccc(-c2noc(CNC(=O)c3ccc(Cl)s3)n2)cc1)N1CCCCC1 [Example 337, 5-Chloro-N-((3-(4-(imino(piperidin-1-yl)methyl)phenyl)-1,2,4-oxadiazol-5-yl)methyl)thiophene-2-carboxamide]",≥ 7.00
16,"CN(C)C(=N)c1ccc(-c2nc(CNC(=O)c3ccc(Cl)s3)co2)cc1 [Example 338, N-((2-(4-(N,N-Dimethylcarbamimidoyl)phenyl)oxazol-4-yl)methyl)-5-chlorothiophene-2-carboxamide]",≥ 7.00
17,"CN1CCN=C1c1ccc(-c2nc(CNC(=O)c3ccc(Cl)s3)co2)cc1 [Example 339, 5-Chloro-N-((2-(4-(1-methyl-4,5-dihydro-1H-imidazol-2-yl)phenyl)oxazol-4-yl)methyl)thiophene-2-carboxamide]",≥ 7.00
18,"N=C(c1ccc(-c2nc(CNC(=O)c3ccc(Cl)s3)co2)cc1)N1CCCC1 [Example 340, 5-Chloro-N-((2-(4-(imino(pyrrolidin-1-yl)methyl)phenyl)oxazol-4-yl)methyl)thiophene-2-carboxamide]",≥ 7.00
19,"N=C(c1ccc(-c2nc(CNC(=O)c3ccc(Cl)s3)co2)cc1)N1CCCCC1 [Example 341, 5-Chloro-N-((2-(4-(imino(piperidin-1-yl)methyl)phenyl)oxazol-4-yl)methyl)thiophene-2-carboxamide]",≥ 7.00
20,"CCOC(=O)C1CCN(C(=N)c2ccc(-c3nc(CNC(=O)c4ccc(Cl)s4)co3)cc2)CC1 [Example 342, Ethyl 1-((4-(4-((2-chlorothiophene-5-carboxamido)methyl)oxazol-2-yl)phenyl)(imino)methyl)piperidine-4-carboxylate]",6.30 to 7.00
21,"CCN(C)C(=N)c1ccc(-c2nc(CNC(=O)c3ccc(Cl)s3)co2)cc1 [Example 343, N-((2-(4-(N-Ethyl-N-methylcarbamimidoyl)phenyl)oxazol-4-yl)methyl)-5-chlorothiophene-2-carboxamide]",6.30 to 7.00
22,"CCCN(C)C(=N)c1ccc(-c2nc(CNC(=O)c3ccc(Cl)s3)co2)cc1 [Example 344, N-((2-(4-(N-Methyl-N-propylcarbamimidoyl)phenyl)oxazol-4-yl)methyl)-5-chlorothiophene-2-carboxamide]",6.30 to 7.00
23,"CN(C)CCN(C)C(=N)c1ccc(-c2nc(CNC(=O)c3ccc(Cl)s3)co2)cc1 [Example 345, N-((2-(4-(N-(2-(Dimethylamino)ethyl)-N-methylcarbamimidoyl)phenyl)oxazol-4-yl)methyl)-5-chlorothiophene-2-carboxamide]",6.30 to 7.00
24,"COCCN(C)C(=N)c1ccc(-c2nc(CNC(=O)c3ccc(Cl)s3)co2)cc1 [Example 346, N-((2-(4-(N-(2-Methoxyethyl)-N-methylcarbamimidoyl)phenyl)oxazol-4-yl)methyl)-5-chlorothiophene-2-carboxamide]",6.30 to 7.00

# Now from value to compound:
row,pIC50,SMILES
1,6.30 to 7.00,"N=C(c1ccc(-c2nc(CNC(=O)c3ccc(Cl)s3)co2)cc1)N1CCC(C(N)=O)CC1 [Example 347, 1-((4-(4-((2-Chlorothiophene-5-carboxamido)methyl)oxazol-2-yl)phenyl)(imino)methyl)piperidine-4-carboxamide]"
2,≤ 6.30,"CNC(=N)c1ccc(-c2nc(CNC(=O)c3ccc(Cl)s3)co2)cc1 [Example 348, N-((2-(4-(N-Methylcarbamimidoyl)phenyl)oxazol-4-yl)methyl)-5-chlorothiophene-2-carboxamide]"
3,6.30 to 7.00,"CN(Cc1ccco1)C(=N)c1ccc(-c2nc(CNC(=O)c3ccc(Cl)s3)co2)cc1 [Example 349, N-((2-(4-(N-(Furan-2-ylmethyl)-N-methylcarbamimidoyl)phenyl)oxazol-4-yl)methyl)-5-chlorothiophene-2-carboxamide]"
4,6.30 to 7.00,"CN(C)C(=N)c1ccc(-c2nc(CNC(=O)c3ccc(Cl)s3)cs2)cc1 [Example 350, N-((2-(4-(N,N-Dimethylcarbamimidoyl)phenyl)thiazol-4-yl)methyl)-5-chlorothiophene-2-carboxamide]"
5,6.30 to 7.00,"CN1CCN=C1c1ccc(-c2nc(CNC(=O)c3ccc(Cl)s3)cs2)cc1 [Example 351, 5-Chloro-N-((2-(4-(1-methyl-4,5-dihydro-1H-imidazol-2-yl)phenyl)thiazol-4-yl)methyl)thiophene-2-carboxamide]"
6,≥ 7.00,"N=C(c1ccc(-c2nc(CNC(=O)c3ccc(Cl)s3)cs2)cc1)N1CCCC1 [Example 352, 5-Chloro-N-((2-(4-(imino(pyrrolidin-1-yl)methyl)phenyl)thiazol-4-yl)methyl)thiophene-2-carboxamide]"
7,6.30 to 7.00,"N=C(c1ccc(-c2nc(CNC(=O)c3ccc(Cl)s3)cs2)cc1)N1CCCCC1 [Example 353, 5-Chloro-N-((2-(4-(imino(piperidin-1-yl)methyl)phenyl)thiazol-4-yl)methyl)thiophene-2-carboxamide]"
8,6.30 to 7.00,"CCOC(=O)C1CCN(C(=N)c2ccc(-c3nc(CNC(=O)c4ccc(Cl)s4)cs3)cc2)CC1 [Example 354, Ethyl 1-((4-(4-((2-chlorothiophene-5-carboxamido)methyl)thiazol-2-yl)phenyl)(imino)methyl)piperidine-4-carboxylate]"
9,≤ 6.30,"CN(C)CCN(C)C(=N)c1ccc(-c2nc(CNC(=O)c3ccc(Cl)s3)cs2)cc1 [Example 355, N-((2-(4-(N-(2-(Dimethylamino)ethyl)-N-methylcarbamimidoyl)phenyl)thiazol-4-yl)methyl)-5-chlorothiophene-2-carboxamide]"
10,≤ 6.30,"CN(Cc1ccco1)C(=N)c1ccc(-c2nc(CNC(=O)c3ccc(Cl)s3)cs2)cc1 [Example 356, N-((2-(4-(N-(Furan-2-ylmethyl)-N-methylcarbamimidoyl)phenyl)thiazol-4-yl)methyl)-5-chlorothiophene-2-carboxamide]"
11,≤ 6.30,"C#CCN(C)C(=N)c1ccc(-c2nc(CNC(=O)c3ccc(Cl)s3)cs2)cc1 [Example 357, N-((2-(4-(N-Methyl-N-(prop-2-ynyl)carbamimidoyl)phenyl)thiazol-4-yl)methyl)-5-chlorothiophene-2-carboxamide]"
